According to patent US11040981B2, “Pyrrolotriazine compounds and methods of inhibiting TAM kinases” (Syros Pharmaceuticals, Inc., priority 2017, dated 2021):
pIC50: −log10 of the molar value.

Assays:
MERTK = target: T1, MERTK (Homo sapiens, UniProt Q12866); assay: TR-FRET kinase activity assay, MERTK; type: biochemical; details: for pIC50: TR-FRET activity assay, ATP at Km, 60 minutes, read-out: Mer IC50; for FLT3/Mer ratio (FLT3 IC50/Mer IC50): ratio of Mer to FLT3: FLT3 IC50/Mer IC50
T1 sequence (Q12866 21-999): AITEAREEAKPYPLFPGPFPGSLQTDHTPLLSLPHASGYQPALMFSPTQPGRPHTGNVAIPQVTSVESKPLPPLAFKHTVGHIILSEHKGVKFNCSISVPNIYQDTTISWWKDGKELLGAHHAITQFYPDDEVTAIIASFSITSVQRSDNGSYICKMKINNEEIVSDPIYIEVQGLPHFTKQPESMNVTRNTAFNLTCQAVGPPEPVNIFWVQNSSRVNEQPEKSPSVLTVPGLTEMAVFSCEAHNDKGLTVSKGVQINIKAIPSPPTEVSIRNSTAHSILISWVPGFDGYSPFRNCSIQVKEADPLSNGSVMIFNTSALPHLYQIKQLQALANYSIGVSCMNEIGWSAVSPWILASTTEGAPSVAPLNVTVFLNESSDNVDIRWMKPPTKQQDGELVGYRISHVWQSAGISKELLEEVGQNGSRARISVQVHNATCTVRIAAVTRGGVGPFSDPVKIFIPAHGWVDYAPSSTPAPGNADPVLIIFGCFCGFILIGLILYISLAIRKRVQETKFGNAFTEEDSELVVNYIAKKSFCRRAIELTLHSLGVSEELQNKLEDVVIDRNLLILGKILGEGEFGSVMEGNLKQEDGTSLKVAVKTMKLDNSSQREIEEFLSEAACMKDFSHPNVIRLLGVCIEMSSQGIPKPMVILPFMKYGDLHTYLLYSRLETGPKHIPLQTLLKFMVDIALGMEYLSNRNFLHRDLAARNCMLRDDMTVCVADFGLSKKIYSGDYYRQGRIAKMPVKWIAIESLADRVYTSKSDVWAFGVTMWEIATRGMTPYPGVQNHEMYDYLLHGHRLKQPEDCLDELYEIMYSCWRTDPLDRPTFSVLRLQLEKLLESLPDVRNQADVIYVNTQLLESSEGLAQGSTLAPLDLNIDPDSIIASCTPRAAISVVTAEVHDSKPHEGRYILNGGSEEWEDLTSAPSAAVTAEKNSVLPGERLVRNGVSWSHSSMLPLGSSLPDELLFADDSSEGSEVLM
How it was run: (§1)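 IC50 reflects the drop in TR-FRET between Eu anti-phosphotyrosine antibody and labelled peptide after a 60-minute room-temperature reaction. Buffer was 50 mM HEPES pH 7.5 with 10 mM MgCl2, 1 mM EGTA, 0.01% Brij 35 and 1 mM DTT, with ATP at Km per enzyme and EDTA quench.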

TYRO3 = target: T2, TYRO3 (Homo sapiens, UniProt Q06418); assay: TR-FRET kinase activity assay, TYRO3; type: biochemical; details: ATP at Km, 60 minutes
T2 sequence (Q06418 41-890): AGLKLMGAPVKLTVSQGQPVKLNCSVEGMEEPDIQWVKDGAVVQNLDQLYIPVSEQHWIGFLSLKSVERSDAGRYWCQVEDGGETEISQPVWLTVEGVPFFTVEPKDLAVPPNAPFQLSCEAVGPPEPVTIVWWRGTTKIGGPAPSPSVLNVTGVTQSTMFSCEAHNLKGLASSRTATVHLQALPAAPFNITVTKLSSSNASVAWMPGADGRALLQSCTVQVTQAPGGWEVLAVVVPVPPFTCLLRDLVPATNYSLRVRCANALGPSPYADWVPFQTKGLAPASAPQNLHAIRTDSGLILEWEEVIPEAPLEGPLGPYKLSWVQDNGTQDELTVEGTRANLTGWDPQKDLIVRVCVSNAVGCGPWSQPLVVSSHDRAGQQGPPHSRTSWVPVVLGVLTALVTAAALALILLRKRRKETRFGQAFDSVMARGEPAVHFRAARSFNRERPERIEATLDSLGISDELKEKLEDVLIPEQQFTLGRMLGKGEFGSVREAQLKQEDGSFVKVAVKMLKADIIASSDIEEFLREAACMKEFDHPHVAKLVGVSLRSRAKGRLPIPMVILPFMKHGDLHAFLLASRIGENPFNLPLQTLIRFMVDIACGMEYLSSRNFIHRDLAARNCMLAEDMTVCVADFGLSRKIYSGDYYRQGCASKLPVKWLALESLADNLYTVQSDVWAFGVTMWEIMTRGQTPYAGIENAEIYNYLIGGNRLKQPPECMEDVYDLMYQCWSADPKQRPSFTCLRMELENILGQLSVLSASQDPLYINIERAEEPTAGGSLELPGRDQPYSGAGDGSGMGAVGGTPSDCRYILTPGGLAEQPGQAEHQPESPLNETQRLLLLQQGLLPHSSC
How it was run: as §1

Row | Structure (SMILES) | pIC50 (MERTK) | FLT3/Mer ratio (FLT3 IC50/Mer IC50) (MERTK) | pIC50 (TYRO3)
1 | COC[C@H](C)Nc1ncc2c(-c3cnn(C4CN(CCC(F)(F)F)C4)c3)cc([C@H]3CC[C@H](O)CC3)n2n1 [Compound 291] | ≥ 7.00 | +++ (“+++” represents a ratio of >100) | ≥ 7.00
2 | COC[C@H](C)Nc1ncc2c(-c3cnn(Cc4nc(C)no4)c3)cc([C@H]3CC[C@H](O)CC3)n2n1 [Compound 292] | ≥ 7.00 | +++ (“+++” represents a ratio of >100) | ≥ 7.00
3 | COC[C@H](C)Nc1ncc2c(-c3cnn(C4CN(C(=O)C5COC5)C4)c3)cc([C@H]3CC[C@H](O)CC3)n2n1 [Compound 293] | ≥ 7.00 | +++ (“+++” represents a ratio of >100) | ≥ 7.00
4 | COC[C@H](C)Nc1ncc2c(-c3cnn(C4CN(C(=O)C5(C(F)(F)F)CC5)C4)c3)cc([C@H]3CC[C@H](O)CC3)n2n1 [Compound 294] | ≥ 7.00 | +++ (“+++” represents a ratio of >100) | ≥ 7.00
5 | CNC(=O)C(C)(C)n1cc(-c2cc([C@H]3CC[C@H](O)CC3)n3nc(N[C@@H](C)COC)ncc23)cn1 [Compound 295] | ≥ 7.00 | +++ (“+++” represents a ratio of >100) | ≥ 7.00
6 | Cc1nnc(Cn2cc(-c3cc([C@H]4CC[C@H](O)CC4)n4nc(N[C@@H](C)CC(F)(F)F)ncc34)cn2)o1 [Compound 296] | ≥ 7.00 | ++ (“++” represents a ratio of between 10 and 100) | ≥ 7.00
7 | C[C@@H](CC(F)(F)F)Nc1ncc2c(-c3ccc(S(C)(=O)=O)nc3)cc([C@H]3CC[C@H](O)CC3)n2n1 [Compound 297] | ≥ 7.00 | ++ (“++” represents a ratio of between 10 and 100) | ≥ 7.00
8 | C[C@@H](CC(F)(F)F)Nc1ncc2c(-c3cncc(C(=O)O)c3)cc([C@H]3CC[C@H](O)CC3)n2n1 [Compound 298] | ≥ 7.00 | +++ (“+++” represents a ratio of >100) | ≥ 7.00
9 | CC(CC(F)(F)F)Nc1ncc2c(-c3cnc(C(=O)O)nc3)cc(C3CCC(O)CC3)n2n1 (stereo not drawn) [Compound 299] | ≥ 7.00 | +++ (“+++” represents a ratio of >100) | ≥ 7.00
10 | COC[C@H](C)Nc1ncc2c(-c3ccc(CN4CCOCC4)cc3)cc([C@H]3CC[C@H](NC(C)=O)CC3)n2n1 [Compound 300, N-((trans)-4-(2-(((S)-1-methoxypropan-2-yl)amino)-5-(4-(morpholinomethyl)phenyl)pyrrolo[2,1-f][1,2,4]triazin-7-yl)cyclohexyl)acetamide] | ≥ 7.00 | +++ (“+++” represents a ratio of >100) | ≥ 7.00
11 | COC[C@H](C)Nc1ncc2c(-c3ccc(CN4CCOCC4)cc3)cc([C@H]3CC[C@H](NS(C)(=O)=O)CC3)n2n1 [Compound 301] | ≥ 7.00 | +++ (“+++” represents a ratio of >100) | ≥ 7.00
12 | COC[C@H](C)Nc1ncc2c(-c3cnn(C4CN(CC(F)(F)F)C4)c3)cc([C@H]3CC[C@H](O)CC3)n2n1 [Compound 302] | ≥ 7.00 | +++ (“+++” represents a ratio of >100) | ≥ 7.00
13 | COC[C@H](C)Nc1ncc2c(-c3cnn(CC4CNC(=O)C4)c3)cc([C@H]3CC[C@H](O)CC3)n2n1 (stereo partly drawn) [Compound 303] | ≥ 7.00 | +++ (“+++” represents a ratio of >100) | ≥ 7.00
14 | CNC(=O)c1cncc(-c2cc([C@H]3CC[C@H](O)CC3)n3nc(N[C@@H](C)CC(F)(F)F)ncc23)c1 [Compound 304] | ≥ 7.00 | +++ (“+++” represents a ratio of >100) | ≥ 7.00
15 | COC[C@H](C)Nc1ncc2c(-c3cnn(Cc4cnccn4)c3)cc([C@H]3CC[C@H](O)CC3)n2n1 [Compound 305] | ≥ 7.00 | +++ (“+++” represents a ratio of >100) | ≥ 7.00
16 | COC[C@H](C)Nc1ncc2c(-c3cnn(Cc4cnc(C)cn4)c3)cc([C@H]3CC[C@H](O)CC3)n2n1 [Compound 306] | ≥ 7.00 | +++ (“+++” represents a ratio of >100) | ≥ 7.00
17 | CNC(=NC#N)N[C@H]1CC[C@H](c2cc(-c3ccc(CN4CCOCC4)cc3)c3cnc(N[C@@H](C)COC)nn32)CC1 [Compound 307] | ≥ 7.00 | +++ (“+++” represents a ratio of >100) | ≥ 7.00
18 | COC[C@H](C)Nc1ncc2c(-c3cc(C)nc(C)c3)cc([C@H]3CC[C@H](O)CC3)n2n1 [Compound 308] | ≥ 7.00 | +++ (“+++” represents a ratio of >100) | ≥ 7.00
19 | Cc1cc(-c2cc([C@H]3CC[C@H](O)CC3)n3nc(N[C@@H](C)C(F)F)ncc23)ccn1 [Compound 309] | ≥ 7.00 | +++ (“+++” represents a ratio of >100) | ≥ 7.00
20 | C[C@@H](CC(F)(F)F)Nc1ncc2c(-c3cncc(C(=O)N(C)C)c3)cc([C@H]3CC[C@H](O)CC3)n2n1 [Compound 310] | ≥ 7.00 | +++ (“+++” represents a ratio of >100) | ≥ 7.00
21 | C[C@@H](CC(F)(F)F)Nc1ncc2c(-c3cncc(C(=O)N4CCOCC4)c3)cc([C@H]3CC[C@H](O)CC3)n2n1 [Compound 311] | ≥ 7.00 | +++ (“+++” represents a ratio of >100) | ≥ 7.00
22 | Cc1nnc(Cn2cc(-c3cc([C@H]4CC[C@H](O)CC4)n4nc(N[C@@H](C)COC(F)F)ncc34)cn2)o1 [Compound 312] | ≥ 7.00 | +++ (“+++” represents a ratio of >100) | ≥ 7.00
23 | Cc1cc(-c2cc([C@H]3CC[C@H](O)CC3)n3nc(N[C@@H](C)COC(F)F)ncc23)ccn1 [Compound 313] | ≥ 7.00 | +++ (“+++” represents a ratio of >100) | ≥ 7.00
24 | COC[C@H](C)Nc1ncc2c(-c3cnn(Cc4ccc(S(C)(=O)=O)cc4)c3)cc([C@H]3CC[C@H](O)CC3)n2n1 [Compound 314] | ≥ 7.00 | +++ (“+++” represents a ratio of >100) | ≥ 7.00
25 | COC[C@H](C)Nc1ncc2c(-c3cnn([C@@H]4CCNC4=O)c3)cc([C@H]3CC[C@H](O)CC3)n2n1 [Compound 315] | ≥ 7.00 | +++ (“+++” represents a ratio of >100) | ≥ 7.00
26 | CNc1c(N[C@H]2CC[C@H](c3cc(-c4ccc(CN5CCOCC5)cc4)c4cnc(N[C@@H](C)COC)nn43)CC2)c(=O)c1=O [Compound 316, 3-(((trans)-4-(2-(((S)-1-methoxypropan-2-yl)amino)-5-(4-(morpholinomethyl)phenyl)pyrrolo[2,1-f][1,2,4]triazin-7-yl)cyclohexyl)amino)-4-(methylamino)cyclobut-3-ene-1,2-dione] | ≥ 7.00 | ++ (“++” represents a ratio of between 10 and 100) | ≥ 7.00
